Values after ≈ are worked out from the molar mass of the structure shown.
What was measured:
A549 = experiment: Antiproliferative activity against human A549 cells assessed as reduction in cell growth incubated for 5 days by MTT assay; format: functional, cell-based; conditions: A549, 120 h
PC-3 = experiment: Antiproliferative activity against human PC-3 cells assessed as reduction in cell growth incubated for 5 days by MTT assay; format: functional, cell-based; conditions: PC-3, 120 h
Bacillus subtilis = experiment: Antibacterial activity against Bacillus subtilis DSM 10 incubated overnight by serial dilution assay; format: functional
MCF7 = experiment: Antiproliferative activity against human MCF7 cells assessed as reduction in cell growth incubated for 5 days by MTT assay; format: functional, cell-based; conditions: MCF7, 120 h
Candida albicans [1] = experiment: Antibiofilm activity against Candida albicans DSM 11225 assessed as increase in biofilm inhibition at 125 microg/ml incubated for 24 hrs by crystal violet staining based plate reader analysis relative to control; format: functional; set-up: scale not given: the % may be the effect or the level left; conditions: dose 125 µg/ml
[2] = Cytotoxicity against mouse L929 cells assessed as reduction in cell viability incubated for 5 days by MTT assay; format: toxicity, cell-based
Staphylococcus aureus [3] = experiment: Antibiofilm activity against Staphylococcus aureus DSM 1104 assessed as increase in biofilm inhibition at 250 ug/ml incubated for 24 hrs by crystal violet staining based plate reader analysis relative to control; format: functional; set-up: scale not given: the % may be the effect or the level left; conditions: dose 250 µg/ml
Staphylococcus aureus [4] = experiment: Antibacterial activity against Staphylococcus aureus DSM 346 incubated overnight by serial dilution assay; format: functional
Candida albicans [5] = experiment: Antibiofilm activity against Candida albicans DSM 11225 assessed as increase in biofilm inhibition at 250 ug/ml incubated for 24 hrs by crystal violet staining based plate reader analysis relative to control; format: functional; set-up: scale not given: the % may be the effect or the level left; conditions: dose 250 µg/ml
A-431 = experiment: Antiproliferative activity against human A-431 cells assessed as reduction in cell growth incubated for 5 days by MTT assay; format: functional, cell-based; conditions: A-431, 120 h
SK-OV-3 = experiment: Antiproliferative activity against human SK-OV-3 cells assessed as reduction in cell growth incubated for 5 days by MTT assay; format: functional, cell-based; conditions: SK-OV-3, 120 h
KB 3-1 = experiment: Antiproliferative activity against human KB-3-1 cells assessed as reduction in cell growth incubated for 5 days by MTT assay; format: functional, cell-based; conditions: KB 3-1, 120 h

IC50 (A549): 4.8 µM
IC50 (PC-3): 4.8 µM
MIC (Bacillus subtilis): 16.6 µg/mL (≈ 18.1 µM)
IC50 (MCF7): 4.8 µM
MIC (Staphylococcus aureus [4]): 33.3 µg/mL (≈ 36.3 µM)
IC50 (A-431): 4.8 µM
IC50 (SK-OV-3): 4.8 µM
IC50 (KB 3-1): 8.3 µM
SMILES: C/C(=C\CC/C(C)=C/CO[C@@H]1O[C@H](CO)[C@@H](O)[C@H](O)[C@@H]1O)CC/C=C(\C)CCCC(C)(O)CCCC(C)(O)CCCC(C)(O)CCCC(C)(O)CCCC(C)(O)CCC(O)C(C)(C)O (some centres not stated)
Activity (Candida albicans [1]): 66%
IC50 at 5 days [2]: 8.1 µM
Activity (Staphylococcus aureus [3]): 85%
Activity (Candida albicans [5]): 71%
